Data from paper PMC5791972 (PLoS ONE, 2018).
Read-outs that look alike come from different tables or passages of the source.

Tests used:
α2C (h) = molecular target: T1, α2C (h) (Homo sapiens, UniProt P18825); assay type: binding; conditions: 1 h
T1 construct: host or cells: CHO cells
T1 sequence (P18825 1-462): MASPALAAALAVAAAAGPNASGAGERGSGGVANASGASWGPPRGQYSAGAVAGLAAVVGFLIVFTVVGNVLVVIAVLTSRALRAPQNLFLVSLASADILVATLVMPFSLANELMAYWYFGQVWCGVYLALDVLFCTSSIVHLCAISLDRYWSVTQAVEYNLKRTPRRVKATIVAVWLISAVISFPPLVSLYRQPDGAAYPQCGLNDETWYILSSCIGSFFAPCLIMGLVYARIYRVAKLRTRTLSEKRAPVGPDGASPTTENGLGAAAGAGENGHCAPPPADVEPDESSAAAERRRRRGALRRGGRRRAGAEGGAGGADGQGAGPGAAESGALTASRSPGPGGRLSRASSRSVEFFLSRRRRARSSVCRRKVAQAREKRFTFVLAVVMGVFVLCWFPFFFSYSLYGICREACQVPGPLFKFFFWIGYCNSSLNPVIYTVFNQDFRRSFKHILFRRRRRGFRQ

Kv7.1 = molecular target: T2, Kv7.1 (Homo sapiens, UniProt P51787); assay: Ion channel selectivity patch clamp; assay type: cell-based; conditions: Voltage (+20 mV)
T2 construct: expressed in transfected cells

PCP = assay type: binding, rat; conditions: 1.0E-06 M
[1] = molecular target: glycine (strychnine-insensitive) (Rattus norvegicus, UniProt P35439); assay type: binding
Cl- channel (GABA-gated) = assay type: binding, rat; conditions: 1.0E-06 M
5-HT2C (h) = molecular target: T3, 5-HT2C (h) (Homo sapiens, UniProt P28335); assay type: binding; conditions: 1.0E-06 M
T3 construct: host or cells: HEK-293 cells
T3 sequence (P28335 33-458): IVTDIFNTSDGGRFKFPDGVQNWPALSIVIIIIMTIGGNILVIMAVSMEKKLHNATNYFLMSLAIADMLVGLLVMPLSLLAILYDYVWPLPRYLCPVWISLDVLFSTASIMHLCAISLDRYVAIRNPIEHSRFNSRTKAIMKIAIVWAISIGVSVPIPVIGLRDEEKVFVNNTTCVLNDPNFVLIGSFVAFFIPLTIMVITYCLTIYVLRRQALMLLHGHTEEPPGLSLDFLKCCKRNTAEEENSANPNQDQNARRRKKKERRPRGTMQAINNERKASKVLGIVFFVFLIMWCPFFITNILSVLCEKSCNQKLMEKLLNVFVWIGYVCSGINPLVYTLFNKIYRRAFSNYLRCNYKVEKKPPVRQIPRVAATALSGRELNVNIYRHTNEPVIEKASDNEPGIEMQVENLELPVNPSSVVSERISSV

human TRPC4 (hTRPC4) = molecular target: T4, human TRPC4 (hTRPC4) (Homo sapiens, UniProt Q9UBN4); assay: Fluorometric calcium influx assay; assay type: cell-based; conditions: 1 pM to 1 μM, n = 8
T4 construct: The cDNAs for various full-length ion channels were subcloned into pcDNA5/TO; expressed in transfected cells; M1R co-expressed in the calcium assay, M2R in patch clamp

M2 (h) = molecular target: T5, M2 (h) (Homo sapiens, UniProt P08172); assay: biochemical
T5 sequence (P08172 1-466): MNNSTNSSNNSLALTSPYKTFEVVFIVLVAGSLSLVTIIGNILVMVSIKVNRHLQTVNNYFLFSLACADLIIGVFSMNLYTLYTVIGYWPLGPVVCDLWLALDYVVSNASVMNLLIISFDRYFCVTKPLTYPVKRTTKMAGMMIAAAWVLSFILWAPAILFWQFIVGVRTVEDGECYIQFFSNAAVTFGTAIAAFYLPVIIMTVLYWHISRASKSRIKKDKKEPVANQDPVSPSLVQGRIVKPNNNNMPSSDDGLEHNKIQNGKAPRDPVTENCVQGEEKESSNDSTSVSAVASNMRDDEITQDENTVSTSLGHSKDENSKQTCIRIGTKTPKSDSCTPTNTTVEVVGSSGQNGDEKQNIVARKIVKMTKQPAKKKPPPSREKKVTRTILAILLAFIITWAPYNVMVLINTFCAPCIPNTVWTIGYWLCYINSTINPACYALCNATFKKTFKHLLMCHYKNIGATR

V2 (h) = molecular target: T6, V2 (h) (Homo sapiens, UniProt P30518); assay type: binding; conditions: 1.0E-06 M
T6 construct: host or cells: CHO cells

NMDA = assay type: binding, rat; conditions: 1.0E-06 M
[2] = molecular target: Ca2+ channel (L, diltiazem site) (benzothiazepines) (Rattus norvegicus, UniProt P22002); assay type: binding
[3] = system: sigma (non-selective) (h); assay type: binding, human; conditions: 1.0E-06 M
NK2 (h) = molecular target: T7, NK2 (h) (Homo sapiens, UniProt P21452); assay type: binding; conditions: 1.0E-06 M
T7 construct: host or cells: CHO cells
T7 sequence (P21452 1-398): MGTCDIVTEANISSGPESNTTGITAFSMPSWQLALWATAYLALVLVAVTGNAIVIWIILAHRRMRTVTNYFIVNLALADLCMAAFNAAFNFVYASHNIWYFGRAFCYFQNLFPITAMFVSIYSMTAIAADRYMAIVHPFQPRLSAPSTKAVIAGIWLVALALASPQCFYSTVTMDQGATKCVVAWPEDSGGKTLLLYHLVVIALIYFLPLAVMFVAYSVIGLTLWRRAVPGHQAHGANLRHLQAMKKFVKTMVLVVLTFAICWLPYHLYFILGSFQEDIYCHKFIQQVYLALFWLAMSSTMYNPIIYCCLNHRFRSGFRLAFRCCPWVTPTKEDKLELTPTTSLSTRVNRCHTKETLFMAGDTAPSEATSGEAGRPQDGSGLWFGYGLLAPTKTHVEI

T6 sequence (P30518 whole entry): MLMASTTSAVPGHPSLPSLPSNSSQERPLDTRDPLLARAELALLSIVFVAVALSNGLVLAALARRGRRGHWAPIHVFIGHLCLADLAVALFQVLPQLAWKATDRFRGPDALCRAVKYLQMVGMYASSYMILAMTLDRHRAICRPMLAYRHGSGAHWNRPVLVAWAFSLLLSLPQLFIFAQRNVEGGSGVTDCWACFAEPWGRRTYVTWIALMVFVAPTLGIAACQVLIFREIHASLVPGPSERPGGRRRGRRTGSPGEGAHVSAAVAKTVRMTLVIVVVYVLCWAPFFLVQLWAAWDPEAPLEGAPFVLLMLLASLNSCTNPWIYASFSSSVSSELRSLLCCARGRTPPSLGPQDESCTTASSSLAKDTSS
Sequence of Ca2+ channel (L, diltiazem site) (benzothiazepines) (P22002 whole entry): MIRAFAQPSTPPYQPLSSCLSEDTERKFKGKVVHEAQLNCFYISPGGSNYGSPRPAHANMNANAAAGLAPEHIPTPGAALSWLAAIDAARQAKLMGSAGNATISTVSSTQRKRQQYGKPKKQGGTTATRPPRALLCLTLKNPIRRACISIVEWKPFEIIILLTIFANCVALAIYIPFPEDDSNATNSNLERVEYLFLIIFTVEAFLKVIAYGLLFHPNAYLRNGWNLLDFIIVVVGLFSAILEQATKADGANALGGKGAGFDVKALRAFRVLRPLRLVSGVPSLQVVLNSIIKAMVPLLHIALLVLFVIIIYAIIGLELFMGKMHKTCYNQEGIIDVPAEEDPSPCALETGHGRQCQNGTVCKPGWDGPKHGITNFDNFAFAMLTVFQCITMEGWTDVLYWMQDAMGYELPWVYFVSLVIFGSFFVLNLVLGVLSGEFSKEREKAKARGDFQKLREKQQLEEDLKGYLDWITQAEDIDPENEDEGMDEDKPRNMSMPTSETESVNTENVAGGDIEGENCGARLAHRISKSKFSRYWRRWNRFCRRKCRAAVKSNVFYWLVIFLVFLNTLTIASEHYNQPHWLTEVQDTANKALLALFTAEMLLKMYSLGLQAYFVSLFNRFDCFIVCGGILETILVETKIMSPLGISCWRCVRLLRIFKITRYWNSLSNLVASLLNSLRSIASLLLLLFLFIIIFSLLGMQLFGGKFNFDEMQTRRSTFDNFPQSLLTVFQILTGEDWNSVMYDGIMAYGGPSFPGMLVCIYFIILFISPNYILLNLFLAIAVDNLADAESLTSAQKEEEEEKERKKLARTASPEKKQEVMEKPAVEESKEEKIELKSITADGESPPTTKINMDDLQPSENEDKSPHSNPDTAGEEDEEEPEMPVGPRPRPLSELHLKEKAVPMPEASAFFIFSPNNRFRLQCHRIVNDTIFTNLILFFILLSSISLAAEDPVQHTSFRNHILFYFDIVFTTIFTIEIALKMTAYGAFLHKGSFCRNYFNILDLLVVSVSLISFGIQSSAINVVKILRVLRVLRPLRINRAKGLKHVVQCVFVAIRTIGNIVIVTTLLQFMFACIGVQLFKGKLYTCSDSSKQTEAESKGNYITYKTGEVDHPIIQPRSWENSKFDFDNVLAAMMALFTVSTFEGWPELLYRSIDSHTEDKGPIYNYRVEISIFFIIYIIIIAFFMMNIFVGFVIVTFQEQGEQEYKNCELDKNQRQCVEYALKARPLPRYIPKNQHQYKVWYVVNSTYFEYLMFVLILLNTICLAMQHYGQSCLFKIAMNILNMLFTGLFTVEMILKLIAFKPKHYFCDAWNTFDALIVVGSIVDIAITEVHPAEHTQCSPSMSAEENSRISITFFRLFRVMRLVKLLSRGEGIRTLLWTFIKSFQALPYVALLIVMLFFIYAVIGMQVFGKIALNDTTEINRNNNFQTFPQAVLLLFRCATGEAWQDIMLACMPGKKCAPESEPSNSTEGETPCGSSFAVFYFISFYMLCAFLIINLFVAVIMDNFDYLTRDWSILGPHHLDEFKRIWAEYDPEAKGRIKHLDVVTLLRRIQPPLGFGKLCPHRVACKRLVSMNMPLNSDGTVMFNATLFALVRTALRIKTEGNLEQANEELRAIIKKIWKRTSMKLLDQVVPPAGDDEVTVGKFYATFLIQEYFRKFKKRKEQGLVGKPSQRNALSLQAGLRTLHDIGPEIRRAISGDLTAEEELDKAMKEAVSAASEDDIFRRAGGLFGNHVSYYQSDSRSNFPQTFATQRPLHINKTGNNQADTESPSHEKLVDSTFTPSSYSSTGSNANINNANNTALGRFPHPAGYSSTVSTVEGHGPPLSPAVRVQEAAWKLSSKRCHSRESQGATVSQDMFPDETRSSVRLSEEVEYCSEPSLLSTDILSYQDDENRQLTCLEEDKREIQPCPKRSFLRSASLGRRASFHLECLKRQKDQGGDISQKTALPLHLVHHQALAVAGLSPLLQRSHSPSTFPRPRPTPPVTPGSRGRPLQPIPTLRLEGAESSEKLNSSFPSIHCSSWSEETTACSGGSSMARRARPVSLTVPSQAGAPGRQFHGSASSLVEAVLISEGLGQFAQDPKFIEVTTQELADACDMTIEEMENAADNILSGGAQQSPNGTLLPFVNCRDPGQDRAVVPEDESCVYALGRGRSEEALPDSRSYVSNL
T4 sequence (Q9UBN4 1-893 isoform Q9UBN4-2): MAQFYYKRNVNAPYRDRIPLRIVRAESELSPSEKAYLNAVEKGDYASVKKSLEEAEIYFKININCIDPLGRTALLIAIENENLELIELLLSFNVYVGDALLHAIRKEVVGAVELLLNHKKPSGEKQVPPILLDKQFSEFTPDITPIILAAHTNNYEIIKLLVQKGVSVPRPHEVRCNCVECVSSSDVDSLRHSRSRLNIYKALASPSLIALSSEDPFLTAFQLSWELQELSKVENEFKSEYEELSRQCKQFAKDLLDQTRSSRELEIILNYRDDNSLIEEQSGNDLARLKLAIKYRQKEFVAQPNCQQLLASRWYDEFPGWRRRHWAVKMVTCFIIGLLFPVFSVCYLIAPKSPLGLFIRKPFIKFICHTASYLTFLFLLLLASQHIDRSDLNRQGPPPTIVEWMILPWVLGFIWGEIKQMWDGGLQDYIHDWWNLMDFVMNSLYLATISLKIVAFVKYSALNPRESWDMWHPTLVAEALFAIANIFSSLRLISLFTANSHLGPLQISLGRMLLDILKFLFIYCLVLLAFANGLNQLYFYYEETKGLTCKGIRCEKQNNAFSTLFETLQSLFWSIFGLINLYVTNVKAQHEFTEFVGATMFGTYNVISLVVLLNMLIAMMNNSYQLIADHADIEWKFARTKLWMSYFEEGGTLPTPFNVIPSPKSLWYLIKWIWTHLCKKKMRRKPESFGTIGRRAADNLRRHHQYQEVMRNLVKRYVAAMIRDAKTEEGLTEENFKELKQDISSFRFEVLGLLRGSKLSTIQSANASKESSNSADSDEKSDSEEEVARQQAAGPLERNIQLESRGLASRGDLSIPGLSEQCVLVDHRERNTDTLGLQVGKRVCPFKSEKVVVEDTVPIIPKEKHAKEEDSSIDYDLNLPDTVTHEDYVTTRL

**Q.** Which results are given for `Cn1c(=O)n(CCCO)c(=O)c2c1nc(Oc1cccc(Cl)c1)n2Cc1ccc(Cl)cc1` [HC-070]?
**A.** inhibition at 1 µM (α2C (h); read-out: % Inhibition 1st): 7.9%; inhibition at 1 µM (α2C (h); read-out: % Inhibition 2nd): -1%; inhibition at 1 µM (α2C (h); read-out: % Inhibition Mean): 3.5%; IC50 (Kv7.1): > 1900 nM

**Q.** What does the source list for `Cn1c(=O)n(CCCO)c(=O)c2c1nc(Oc1cccc(OC(F)(F)F)c1)n2Cc1ccc(Cl)cc1` [HC-608]?
**A.** % Inhibition 1st (PCP): -9%; % Inhibition 2nd (PCP): -0.1%; % Inhibition Mean (PCP): -4.6%; inhibition at 1 µM ([1]; read-out: % Inhibition 1st): 1.7%; inhibition at 1 µM ([1]; read-out: % Inhibition 2nd): 3.1%; inhibition at 1 µM ([1]; read-out: % Inhibition Mean): 2.4%; % Inhibition 1st (Cl- channel (GABA-gated)): 24.7%; % Inhibition 2nd (Cl- channel (GABA-gated)): 23.2%; % Inhibition Mean (Cl- channel (GABA-gated)): 23.9%; inhibition at 1 µM (5-HT2C (h); read-out: % Inhibition 1st): 12.1%; inhibition at 1 µM (5-HT2C (h); read-out: % Inhibition 2nd): 12.6%; inhibition at 1 µM (5-HT2C (h); read-out: % Inhibition Mean): 12.3%; IC50 (human TRPC4 (hTRPC4)): 32.5 ± 1.8 nM; inhibition at 1 µM (M2 (h); read-out: % Inhibition 1st): -15.9%; inhibition at 1 µM (M2 (h); read-out: % Inhibition 2nd): -14.2%; inhibition at 1 µM (M2 (h); read-out: % Inhibition Mean): -15%; inhibition at 1 µM (V2 (h); read-out: % Inhibition 1st): 8.6%; inhibition at 1 µM (V2 (h); read-out: % Inhibition 2nd): 5.7%; inhibition at 1 µM (V2 (h); read-out: % Inhibition Mean): 7.1%; % Inhibition 1st (NMDA): 19%; % Inhibition 2nd (NMDA): 3.2%; % Inhibition Mean (NMDA): 11.1%; % Inhibition 1st [2]: -1.9%; % Inhibition 2nd [2]: 8.8%; % Inhibition Mean [2]: 3.4%; % Inhibition 1st [3]: 28%; % Inhibition 2nd [3]: 30.6%; % Inhibition Mean [3]: 29.3%; inhibition at 1 µM (NK2 (h); read-out: % Inhibition 1st): -10%; inhibition at 1 µM (NK2 (h); read-out: % Inhibition 2nd): 18.9%; inhibition at 1 µM (NK2 (h); read-out: % Inhibition Mean): 4.4%
